Measured values reported in patent publication US10913753B2, “Thienopyridine carboxamides as ubiquitin-specific protease inhibitors” (FORMA Therapeutics, Inc., priority 2016, dated 2021).

Key:
USP25 = USP25 (Homo sapiens (Human), UniProt Q9UHP3); experiment: Ubiquitin-Rhodamine 110 Assay for USP25 Activity; type: biochemical
Description: The assay was performed in a final volume of 9 μL in assay buffer containing 20 mM Tris-HCl (pH 8.0, (1M Tris-HC1, pH 8.0 solution; Corning 46-031-CM)), 3 mM BME (2-Mercaptoethanol; Sigma 63689-25ML-F), 0.03% BGG (0.22 μM filtered, Sigma, G7516-25G), and 0.01% Triton X-100 (Sigma, T9284-10L). Nanoliter quantities of 10-point, 3-fold serial dilution in DMSO was pre-dispensed into 1536 assay plates (Corning, #3724BC) for a final test concentration of 25 μM to 1.3 nM, top to lowest dose, respectively. Enzyme USP25, construct USP25-His6, (Boston Biochem E-546). Concentration and incubation times were optimized for the maximal signal-to-background while maintaining initial velocity conditions at a fixed substrate concentration. The final concentration of the enzyme in the assay was 75 pM. […] 3 μL of 2× enzyme was added to assay plates (pre-stamped with compound) preincubated with […] for 30 minutes and then 3 μL of 2× Ub-Rh110 was added to assay plates. Plates were incubated for 45 minutes at room temperature before addition of 3 μL of stop solution (final concentration of 10 mM citric acid (Sigma, 251275-500G)). Fluorescence was read on the Envision (Excitation at 485 nm and Emission at 535 nm; Perkin Elmer) or on the PheraSTAR (Excitation at 485 nm and Emission at 535 nm; BMG Labtech).
(§1) For both the USP28 and USP25 assay formats, data were reported as percent inhibition compared with control wells based on the following equation: % inh=1-((FLU-AveLow)/(AveHigh−AveLow)) where FLU=measured Fluorescence, AveLow=average Fluorescence of no enzyme control (n=16), and AveHigh=average Fluorescence of DMSO control (n=16). IC50 values were determined by curve fitting of the standard 4 parameter logistic fitting algorithm included in the Activity Base software package: IDBS XE Designer Model205. Data is fitted using the Levenburg Marquardt algorithm.

USP28 = USP28 (Homo sapiens (Human), UniProt Q96RU2); experiment: Ubiquitin-Rhodamine 110 Assay for USP28 Activity; type: biochemical
USP28, sequence (Q96RU2 whole entry): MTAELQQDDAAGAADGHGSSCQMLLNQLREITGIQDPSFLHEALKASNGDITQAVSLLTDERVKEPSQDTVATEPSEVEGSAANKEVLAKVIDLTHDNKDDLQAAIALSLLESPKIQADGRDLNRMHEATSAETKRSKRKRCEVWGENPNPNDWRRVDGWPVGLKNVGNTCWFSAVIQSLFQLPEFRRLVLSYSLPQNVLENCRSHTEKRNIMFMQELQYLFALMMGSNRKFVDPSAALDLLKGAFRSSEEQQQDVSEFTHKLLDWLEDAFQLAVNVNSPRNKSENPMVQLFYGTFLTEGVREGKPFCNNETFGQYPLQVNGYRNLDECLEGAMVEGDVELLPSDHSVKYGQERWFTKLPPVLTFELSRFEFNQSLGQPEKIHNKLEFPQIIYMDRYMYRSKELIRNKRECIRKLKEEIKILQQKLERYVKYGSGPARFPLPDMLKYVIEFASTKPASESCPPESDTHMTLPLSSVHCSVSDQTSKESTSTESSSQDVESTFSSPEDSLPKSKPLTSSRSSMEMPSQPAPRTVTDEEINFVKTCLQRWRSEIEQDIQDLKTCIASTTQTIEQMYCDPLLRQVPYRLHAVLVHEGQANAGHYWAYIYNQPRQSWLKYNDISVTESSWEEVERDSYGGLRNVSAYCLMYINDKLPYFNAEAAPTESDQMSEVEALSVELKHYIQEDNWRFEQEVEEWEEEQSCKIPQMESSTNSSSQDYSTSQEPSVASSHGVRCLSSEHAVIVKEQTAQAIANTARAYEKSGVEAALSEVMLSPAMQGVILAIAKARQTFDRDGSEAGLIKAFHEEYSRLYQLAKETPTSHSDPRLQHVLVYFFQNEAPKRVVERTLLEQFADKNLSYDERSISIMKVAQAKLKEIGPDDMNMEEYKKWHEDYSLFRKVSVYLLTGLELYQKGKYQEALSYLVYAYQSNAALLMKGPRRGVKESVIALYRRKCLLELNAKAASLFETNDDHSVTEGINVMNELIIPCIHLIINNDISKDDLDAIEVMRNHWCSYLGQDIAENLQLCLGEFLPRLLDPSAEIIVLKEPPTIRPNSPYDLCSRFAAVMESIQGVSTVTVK
Description: The assay was performed in a final volume of 20 μL in assay buffer containing 20 mM Tris-HCl (pH 8.0, (1M Tris-HCl, pH 8.0 solution; Corning 46-031-CM)), 2 mM CaCl2 (1M Calcium Chloride solution; Sigma #21114) 2 mM BME (2-Mercaptoethanol; Sigma 63689-25ML -F), 0.01% Prionex (0.22 μM filtered, Sigma #G-0411), and 0.01% Triton X-100. Stock compound solutions were stored at −20° C. as 10 mM in DMSO. Up to 1 month prior to the assay, 2 mM test compounds were pre-dispensed into assay plates (Black, low volume; Corning #3820) and frozen at −20° C. Prestamped assay plates were allowed to come to room temperature on the day of the assay. For the screen, 100 nL of 2 mM was pre-dispensed for a final screening concentration of 10 μM (DMSO(fc)=0.5%). […] Plates were incubated stacked for 90 minutes at room temperature before fluorescence was read on the Envision (Excitation at 485 nm and Emission at 535 nm; Perkin Elmer) or on the PheraSTAR (Excitation at 485 nm and Emission at 535 nm; BMG Labtech).
For follow-up studies, the assay was performed in a final volume of 15 μL in assay buffer containing 20 mM Tris-HCl (pH 8.0, (1M Tris-HCl, pH 8.0 solution; Corning 46-031-CM)), 3 mM BME (2-Mercaptoethanol; Sigma 63689-25ML-F), 0.03% BGG (0.22 μM filtered, Sigma, G7516-25G), and 0.01% Triton X-100 (Sigma, T9284-10L). Nanoliter quantities of either an 8-point or 10-point, 3-fold serial dilution in DMSO was pre-dispensed into assay plates (Perkin Elmer, ProxiPlate-384 F Plus) for a final test concentration of either 25 μM to 11 nM or 25 μM to 1.3 nM, respectively. Enzyme USP28, construct USP28 (USP28-5(1-1077)-TEV-6*His; LifeSensors) concentration and incubation times were optimized for the maximal signal-to -background while maintaining initial velocity conditions at a fixed substrate concentration. The final concentration of the enzyme in the assay was 75 pM. […] 5 μL of 2× enzyme was added to assay plates (pre-stamped with compound) preincubated with USP28 for 30 minutes and then 5 μL of 2× Ub-Rh110 was added to assay plates. Plates were incubated stacked for 20 min at room temperature before 5 μL of stop solution was added (final concentration of 10 mM citric acid (Sigma, 251275-500G)). Fluorescence was read on the Envision (Excitation at 485 nm and Emission at 535 nm; Perkin Elmer) or on the PheraSTAR (Excitation at 485 nm and Emission at 535 nm; BMG Labtech).
as §1

USP25, sequence (Q9UHP3 whole entry): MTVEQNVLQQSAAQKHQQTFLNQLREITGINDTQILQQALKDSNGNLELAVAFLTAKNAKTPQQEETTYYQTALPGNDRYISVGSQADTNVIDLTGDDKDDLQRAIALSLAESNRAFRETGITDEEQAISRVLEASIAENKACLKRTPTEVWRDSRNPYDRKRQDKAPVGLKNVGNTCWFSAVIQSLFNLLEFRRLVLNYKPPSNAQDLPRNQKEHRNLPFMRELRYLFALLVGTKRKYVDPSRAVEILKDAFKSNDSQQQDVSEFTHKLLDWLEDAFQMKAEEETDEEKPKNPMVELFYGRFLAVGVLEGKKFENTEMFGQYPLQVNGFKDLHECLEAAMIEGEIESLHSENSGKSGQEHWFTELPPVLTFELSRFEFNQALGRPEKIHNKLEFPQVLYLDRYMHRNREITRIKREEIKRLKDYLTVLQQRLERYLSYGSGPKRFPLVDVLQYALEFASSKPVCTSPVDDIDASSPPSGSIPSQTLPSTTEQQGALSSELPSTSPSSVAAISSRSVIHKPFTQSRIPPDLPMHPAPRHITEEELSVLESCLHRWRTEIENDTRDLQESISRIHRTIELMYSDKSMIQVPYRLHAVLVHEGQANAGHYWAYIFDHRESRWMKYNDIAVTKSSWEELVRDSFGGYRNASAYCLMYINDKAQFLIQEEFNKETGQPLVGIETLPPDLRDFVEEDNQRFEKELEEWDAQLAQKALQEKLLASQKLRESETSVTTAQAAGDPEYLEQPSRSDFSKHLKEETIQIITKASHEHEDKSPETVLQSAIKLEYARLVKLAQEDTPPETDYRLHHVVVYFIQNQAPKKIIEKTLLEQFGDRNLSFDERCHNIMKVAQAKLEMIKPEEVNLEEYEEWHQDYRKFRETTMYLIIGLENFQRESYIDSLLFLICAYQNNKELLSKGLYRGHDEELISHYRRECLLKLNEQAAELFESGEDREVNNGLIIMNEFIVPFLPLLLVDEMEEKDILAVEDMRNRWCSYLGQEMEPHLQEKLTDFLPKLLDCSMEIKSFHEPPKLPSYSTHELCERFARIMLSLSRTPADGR

## Cc1nc2sc(C(=O)NC[C@@H](C)c3cc(F)c(N4CCNCC4)cc3F)c(N)c2cc1F [Example I-99]
USP25
  IC50: 2000 to 10000 nM
USP28
  IC50: 2000 to 10000 nM

## Cc1ccc2c(N)c(C(=O)NCCc3ccc(N4CCNCC4)c(F)c3F)sc2n1 [Example I-84]
USP25
  IC50: 200 to 2000 nM
USP28
  IC50: 200 to 2000 nM

## Cc1ccc2c(N)c(C(=O)NCCc3ccc(N4CCNCC4)c(-c4ccccn4)c3)sc2n1 [Example I-168, 3-Amino-6-methyl-N-(4-(piperazin-1-yl)-3-(pyridin-2-yl)phenethyl)thieno[2,3-b]pyridine-2-carboxamide]
USP25
  IC50: 10000 to 25000 nM
USP28
  IC50: 2000 to 10000 nM

## Cc1ccc2c(N)c(C(=O)NCCc3cccc(CC(=O)O)c3)sc2n1 [Example I-178]
USP25
  IC50: 2000 to 10000 nM
USP28
  IC50: 2000 to 10000 nM

## Nc1ccc2c(N)c(C(=O)NCCc3ccc(N4CCNCC4)cc3)sc2n1 [Example I-184]
USP25
  IC50: 200 to 2000 nM
USP28
  IC50: 200 to 2000 nM

## Cc1cc(N)nc2sc(C(=O)NCCc3ccc(N4CCNCC4)c(Cl)c3)c(N)c12 [Compound I-17]
USP25
  IC50: 2000 to 10000 nM
USP28
  IC50: 200 to 2000 nM

## Cc1ccc2c(N)c(C(=O)NCCc3cccc(C(=O)O)c3)sc2n1 [Example I-175]
USP25
  IC50: 2000 to 10000 nM
USP28
  IC50: 2000 to 10000 nM

## Nc1cc(C(F)F)c2c(N)c(C(=O)NCCc3ccc(N4CCNCC4)cc3)sc2n1 [Compound I-16]
USP25
  IC50: 200 to 2000 nM
USP28
  IC50: < 200 nM

## Cc1ccc2c(N)c(C(=O)NCCc3ccc([C@@H]4CCNC4)cc3)sc2n1 (single isomer, unassigned) [Example I-181]
USP25
  IC50: 200 to 2000 nM
USP28
  IC50: < 200 nM

## Cc1nc2sc(C(=O)NCCc3ccc(N4CCNCC4)cc3)c(N)c2cc1F [Compound I-63]
USP25
  IC50: 200 to 2000 nM
USP28
  IC50: < 200 nM

## Cc1ccc2c(N)c(C(=O)NCCc3ccc(N4CCNCC4)c(-c4ccc(C(=O)N5CCCC5)cc4)c3)sc2n1 [Example I-165]
USP25
  IC50: 10000 to 25000 nM
USP28
  IC50: 200 to 2000 nM

## C[C@@H](CNC(=O)c1sc2ncc(F)cc2c1N)c1cc(F)c(N2CC3CCC(C2)N3)cc1F (single isomer, unassigned) [Example I-102]
USP25
  IC50: 2000 to 10000 nM
USP28
  IC50: 2000 to 10000 nM

## Cc1ccc2c(N)c(C(=O)NCCc3ccc(CC(=O)O)cc3)sc2n1 [Example I-174]
USP25
  IC50: 2000 to 10000 nM
USP28
  IC50: 200 to 2000 nM

## Cc1ccc2c(N)c(C(=O)NCCc3ccc(N4CCNCC4)c(F)c3)sc2n1 [Example I-10, 3-Amino-N-(3-fluoro-4-(piperazin-1-yl)phenethyl)-6-methylthieno[2,3-b]pyridine-2-carboxamide]
USP25
  IC50: 200 to 2000 nM
USP28
  IC50: 2000 to 10000 nM

## Cc1ccc2c(N)c(C(=O)NCCc3cc(F)c(NC4CNC4)cc3F)sc2n1 [Compound I-70]
USP25
  IC50: 200 to 2000 nM
USP28
  IC50: < 200 nM

## CC(C)Oc1ccc2c(N)c(C(=O)NCCc3ccc(N4CCNCC4)cc3)sc2n1 [Example I-192]
USP25
  IC50: 2000 to 10000 nM
USP28
  IC50: 200 to 2000 nM

## Cc1ccc2c(N)c(C(=O)NCCc3ccc(N4CCNCC4)cc3C3CC3)sc2n1 [Example I-81]
USP25
  IC50: < 200 nM
USP28
  IC50: < 200 nM

## Cc1ccc2c(N)c(C(=O)NCCc3cc(F)c(N4C[C@@H]5CCN[C@@H]5C4)cc3F)sc2n1 [Example I-95]
USP25
  IC50: 200 to 2000 nM
USP28
  IC50: < 200 nM
